Columns and labels:
Assay type in all cases: cell-based, human
[1] = tested on: HAP-1, HAP-1.KO.GPx1, Siso and A2780 cells; experiment: cellular morphology after 24 h; parameters: key: no impact (0); weak impact (+); strong impact (++); conditions: summary grade
Text: All new pentathiepins induced apoptosis, although to different extents and in a cell line-dependent manner. […] In the corresponding GPx1-knockout cell line, the effect of doxorubicin was higher (about 50%), whereas only two of the pentathiepins induced apoptosis, namely, 3 and 5. The fractions of early apoptotic cells were 34 and 15%, respectively, and the population of late apoptotic cells 6% for 3. In the ovarian carcinoma cell line A2780 the overall effects were marginal, but all compounds except 6 increased the percentage of early apoptotic cells to 6–14%, with 3 resulting in the highest amount. In the Siso cell line, pentathiepin 3 increased both the number of early and late apoptotic cells to about 20%, which exceeded the effects of doxorubicine (0.5 µM). These findings were further corroborated by the observation of morphological features such as membrane blebbing and cell shrinkage as particular hallmarks of apoptosis (Figure S51).
Figure S51: Representative images of cellular morphology after an incubation for 24 h with the respective pentathiepins 1-6 (IC90) or a corresponding volume of DMF as negative control in HAP-1, HAP-1.KO.GPx1, Siso and A2780 cells. Arrows denote membrane blebbing, dashed arrows label cell shrinkage.
(1 picture or pasted object on this page, not shown here)

seven cancer cell lines [2] = experiment: DCFDA flow cytometric ROS assay, acute; parameters: key: no impact (0); weak impact (+); strong impact (++); conditions: summary grade
Experimental: According to the hypothesized mechanism of action (see Figure 3), pentathiepins can create oxidative stress via generation of reactive sulfur precursors. We have previously reported that a representative pentathiepin can increase the intracellular levels of ROS in two cancer cell lines. This effect was thus further evaluated with the new compounds in seven cell lines (Figure 8). The cells were incubated for 15 min with 25.0 µM pentathiepin and subsequently analyzed by using the intracellular ROS sensor 2′,7′-dichlorodihydrofluorescein diacetate (DCFDA) by flow cytometry.
(§1) In order to quantify intracellular ROS, we performed a flow cytometric assay based on the ROS-sensor 2′,7′-dichlorofluorescein diacetate (DCFDA). For acute effects of pentathiepins on intracellular ROS levels, the cells were stained with DCFDA first and subsequently incubated with 25 µM of compound for 10 min. […] Per condition, 250,000 cells were seeded in 2 mL of medium per well of a 6-well plate and allowed to adhere overnight. For measurement of acute ROS, the cells were stained with 1 mL of a 20 µM DCFDA-PBS solution for 30 min under standard incubation conditions. Afterwards, the solution was discarded, and the monolayer washed twice with 1 mL of PBS before 3 mL of medium containing 25 µM of pentathiepin was added for 10 min at 37 °C. After removing the solution and washing again with PBS, the cells were detached by using 0.5 mL of a diluted trypsin/EDTA-PBS solution (25%) and harvested with 1 mL of culture medium by carefully rinsing the wells. The cell suspension was transferred to 1.5 mL tubes, centrifuged for 5 min at 500× g, and washed with 1 mL of PBS. After removing the supernatant, each pellet was resuspended in 0.5 mL of PBS for measurement via the MACSquant Analyzer 10 at λEx/Em = 488/530 nm. Relative ROS levels resulting from treatment with pentathiepin were calculated by relating the fluorescence intensity of treated samples to the negative control. For the experiments covering periods of 24 and 48 h, the cells were incubated with the compounds first and stained with DCFDA afterwards. To assess the influence of additional GSH, we included 3 or 30 µM GSH to the medium containing 25 µM of pentathiepin, and the protocol was followed as described.

HAP-1 and HAP-1.KO.GPx1 = experiment: DCFDA ROS assay with GSH added to the medium; conditions: 25 µM pentathiepin plus 3 or 30 µM GSH in medium, 15 min
Experimental: As thiols are supposedly needed for the activation of the pentathiepins, the influence of additional glutathione added to the culture medium during treatment on the intracellular ROS levels was assessed. In these experiments, 3 or 30 µM of GSH were added to the medium containing 25 µM of pentathiepin or solvent, respectively (Figure 9).
as §1, with “(DCFDA).” for “(DCFDA). For acute effects of pentathiepins on intracellular ROS levels, the cells were stained with DCFDA first and subsequently incubated with 25 µM of compound for 10 min.”, “Afterwards, the solution was discarded, and the monolayer washed twice with 1 mL of PBS before 3 mL of medium containing 25 µM of pentathiepin was added for 10 min at 37 °C.” left out

seven cancer cell lines [3] = experiment: cell cycle analysis (summary); parameters: key: no impact (0); weak impact (+); strong impact (++); conditions: summary grade
Experimental: The potent cytotoxicity and the potential to inhibit the proliferation of cancer cells accompanied by DNA damage effects raised the question as to whether cell cycle progression might be affected as a result of treatment with pentathiepins.
Cells were harvested by trypsinization, collected in 1.5 mL tubes, and washed twice with PBS by centrifuging for 5 min at 500× g and discarding the supernatant after every step. For fixation, 500 µL of ice-cold ethanol (70%) was added dropwise under vortexing with a subsequent incubation on ice for 30 min. Then, the cells were centrifuged for 10 min at 4000 rpm and 4 °C, the supernatant was removed, and the cells were resuspended in 500 µL of PBS containing 25 µg/mL of PI and 100 µg/mL of RNase. The staining solution was incubated for 30 min, and the cell suspension was measured at λEx/Em = 488/655–730 nm using a MACSquant Analyzer 10 (Miltenyi Biotec, Teterow, Germany).

| SMILES | Morphological changes [1] | ROS induction (seven cancer cell lines [2]) | effect of added GSH on intracellular ROS (HAP-1 and HAP-1.KO.GPx1) | G0/G1 arrest (seven cancer cell lines [3]) | G2/M arrest (seven cancer cell lines [3]) |
| --- | --- | --- | --- | --- | --- |
| CCOc1c2c(c3cnc4[nH]c(-c5ccc(OC)cc5)cc4n13)SSSSS2 [Compound 1, 11-Ethoxy-2-(4-methoxyphenyl)-3H-[1,2,3,4,5]pentathiepino[6′,7′:3,4]pyrrolo[1,2-a]pyrrolo[2,3-e]pyrazine] | 0 | 0 | No change was observed | + | 0 |
| CCOc1c2c(c3ccc(C(=O)N4CCCCC4)cn13)SSSSS2 [Compound 2, (6-Ethoxy-[1,2,3,4,5]pentathiepino[6,7-a]indolizin-9-yl)(piperidinyl)methanone] | + | ++ | roughly doubling the effect of the compound alone | 0 | + |
| CCOc1c2c(c3ccc(C(=O)N4CCOCC4)cn13)SSSSS2 [Compound 3, (6-Ethoxy-[1,2,3,4,5]pentathiepino[6,7-a]indolizin-9-yl)(morpholino)methanone] | ++ | ++ | tendency toward decreased oxidative stress | 0 | + |
| CCOc1c2c(c3ccc(C(=O)N(CC)CC)cn13)SSSSS2 [Compound 4, 6-Ethoxy-N,N’-diethyl-[1,2,3,4,5]pentathiepino[6,7-a]indolizine-9-carboxamide] | ++ | ++ | an ascending trend was observed but not determined as statistically significant | 0 | + |
| CCOc1c2c(c3ccc(C(=O)N4CCN(C(=O)c5ccc(F)cc5)CC4)cn13)SSSSS2 [Compound 5, (6-Ethoxy-[1,2,3,4,5]pentathiepino[6,7-a]indolizin-9-yl)(4-(4-fluorobenzoyl)piperazinyl)methanone] | ++ | ++ | roughly doubling the effect of the compound alone | 0 | + |
| CCOc1c2c(c3ccc(C(=O)N4CCN(S(=O)(=O)c5ccc(C)cc5)CC4)cn13)SSSSS2 [Compound 6, (6-Ethoxy-[1,2,3,4,5]pentathiepino[6,7-a]indolizin-9-yl)(4-tosylpiperazinyl)methanone] | + | + | tendency toward decreased oxidative stress | + | 0 |
